Test results as given in patent US20100152108A1, “METHODS AND COMBINATION THERAPIES FOR TREATING ALZHEIMER'S DISEASE” (priority 2006, published 2010).
Values joined by “and” are separate entries in the source; they are usually repeats but may differ in a detail not shown here. Equal values may be shown once. Read-outs that look alike come from different tables or passages of the source.

Tests used:
scopolamine-treated rats = experiment: Two-trial object recognition paradigm in scopolamine-treated rats; format: in vivo, Sprague-Dawley rats; settings: for Memory Performance (N-F, difference in time spent with the novel object and familiar object): scopolamine 0.3 mg/kg i.p., mean ± SEM
Experimental: The two-trial object recognition paradigm developed by Ennaceur and Delacour in the rat was used as a model of episodic memory.
Male Sprague-Dawley rats between six and seven weeks old, weighing between 220-300 grams were obtained from Centre d′Elevage (Rue Janvier, B.P. 55, Le Genest-Saint-Isle 53940, France). The animals were housed in groups of 2 to 4 in polypropylene cages (with a floor area of 1032 cm^2) under standard conditions: at room temperature (22±2° C.), under a 12 hour light/12 hour dark cycle, with food and water provided ad libitum. Animals were permitted to acclimate to environmental conditions for at least 5 days before therapy begins, and were numbered on their tails with indelible marker.
The experimental arena was a square wooden box (60 cm×60 cm×40 cm) painted dark blue, with 15 cm×15 cm black squares under a clear plexiglass floor. The arena and objects placed inside the arena were cleaned with water between each trial to eliminate any odor trails left by rats. The arena was placed in a dark room illuminated only by halogen lamps directed towards the ceiling in order to produce a uniformly dim light in the box of approximately 60 lux. The day before testing, animals were allowed to freely explore the experimental arena for three minutes in the presence of two objects (habituation). Animals to be tested were placed in the experimental room at least 30 minutes before testing.
On the day of the experiment, animals were submitted to two trials separated by an interval of 120 minutes. During the first, or acquisition, trial (T1), rats were placed in the arena, which was prepared with two identical objects. The time required for each animal to complete 15 seconds of object exploration was determined, with a cut-off time of four minutes. […] Rats were placed back in the arena for three minutes, and exploration of both objects was determined. Locomotor activity of rats (number of times rats cross grid lines visible under the clear plexiglass floor) was scored for during T1 and T2. […]
The following parameters were measured: (1) time required to achieve 15 seconds of object exploration during T1; (2) locomotor activity during T1 (number of crossed lines); (3) time spent in active exploration of the familiar object during T2 (TFamiliar); (4) time spent in active exploration of the novel object during T2 (TNovel); and (5) locomotor activity during T2 (number of crossed lines). The difference between time spent in active exploration of the novel object during T2 and time spent in active exploration of the familiar object during T2 (ΔTNovel−TFamiliar) was evaluated. The recognition index [(TNovel−TFamiliar/(TNovel+TFamiliar)] was derived, and the percentage of animals with TNovel−TFamiliar>5 seconds was assessed. […]

[1] = test system: patients with mild to moderate Alzheimer's disease
Experimental: Patients were evaluated with the ADAS-cog (primary endpoint), CIBIC-plus, MMSE, NPI and ADL at baseline, week 12 and week 26. The Alzheimer's Disease Assessment Scale Cognitive Subscale (ADAS-cog) score assesses memory and cognition over time. The Mini Mental State Exam (MMSE) also assesses memory and cognition. The Alzheimer's Disease Cooperative Study-Clinical Global Impression of Change (ADCS-CGIC, also called CIBIC-plus) measures the patient's global status over time. It takes into account memory, cognition, behavior and motor disturbance. The Neuropsychiatric Inventory (NPI) measures the patients' behavior and psychiatric disturbance in 12 domains including delusions, hallucinations, agitation/aggression, depression/dysphoria, anxiety, elation/euphoria, apathy/indifference, disinhibitions, irritability/lability, motor disturbance, nighttime behaviors, and appetite/eating. An ADL inventory assesses the impact of cognitive impairment on activities of daily living. […] All subjects enrolled were included in the intention-to-treat analysis. Thus, the analysis includes all randomized patients, even those who discontinued the study prior to study completion.

amyloid beta 42 (Aβ42) = settings: cultured human cells and animal models; cited from earlier work
[2] = test system: human neuroblastoma SK-N-SH; settings: cited from earlier work
[3] = test system: release of acetylcholine from the cortex; settings: microdialysis; cited from earlier work
[4] = week 26, dimebon 20 mg orally three times a day vs placebo

Cc1ccc2c(c1)c1c(n2CCc2ccc(C)nc2)CCN(C)C1.Cl.Cl [Dimebon, 2,8-dimethyl-5-(2-(6-methyl-3-pyridyl)-ethyl)-2,3,4,5-tetrahydro-1H-pyrido(4,3-b)indol dihydrochloride]
effect at doses below the maximally effective dose, tested individually (scopolamine-treated rats; dimebon 2.5 mg/kg oral, donepezil 0.03 mg/kg intraperitoneal): only partially effective | maximally effective dose (scopolamine-treated rats; oral): 5 mg/kg | Memory Performance (N-F, difference in time spent with the novel object and familiar object) (scopolamine-treated rats; vehicle i.p. + Dimebon 2.5 mg/kg p.o.): 2.57 ± 0.95 s | Memory Performance (N-F, difference in time spent with the novel object and familiar object) (scopolamine-treated rats; vehicle i.p. + Dimebon 5 mg/kg p.o.): 5.00 ± 2.09 s | all other gastrointestinal side effects combined ([1]; in vivo): < 3% | patients who experienced serious adverse events ([1]; in vivo): 3.4% | tolerability ([1]; in vivo): well-tolerated | patients who experienced serious adverse events ([1]; in vivo, po): 2.2% | most common adverse event: dry mouth ([1]; in vivo, dihydrochloride): 18% and 13.5% | ADL mean drug-placebo difference [1, 4]: 3.35 units | CIBIC-plus mean drug-placebo difference [1, 4]: 0.61 units | MMSE mean drug-placebo difference [1, 4]: 2.24 units | NPI mean drug-placebo difference [1, 4]: 3.57 units | ADAS-cog mean drug-placebo difference ([1]; week 26, dimebon 20 mg orally three times a day vs placebo, intention-to-treat): 4.0 units | change in the 5 endpoints, mean baseline scores compared with week 26 scores ([1]; week 26 vs baseline, ADAS-cog, CIBIC-plus, MMSE, NPI, ADL): significant improvements in all 5 endpoints | ADAS-cog mean drug-placebo difference ([1]; week 52, dimebon vs placebo): 6.9 units | ADL mean drug-placebo difference ([1]; week 52, dimebon vs placebo): 5.2 units | CIBIC-plus mean drug-placebo difference ([1]; week 52, dimebon vs placebo): 0.80 units | MMSE mean drug-placebo difference ([1]; week 52, dimebon vs placebo): 2.3 units | NPI mean drug-placebo difference ([1]; week 52, dimebon vs placebo): 3.5 units | change in the 5 endpoints, mean baseline scores compared with week 52 scores ([1]; week 52 vs baseline, ADAS-cog, CIBIC-plus, MMSE, NPI, ADL): improvements in all 5 endpoints

C[C@@H](C(=O)O)c1ccc(-c2ccccc2)c(F)c1 [Flurizan]
levels of amyloid beta 42 (Aβ42) (amyloid beta 42 (Aβ42)): reduces levels

C#CCN[C@@H]1CCc2ccc(OC(=O)N(C)CC)cc21 [Ladostigil]
apoptosis-induced levels of holo-APP protein [2]: reduces apoptosis-induced levels of holo-APP protein | phospho PKC and release of the nonamyloidogenic amyloid protein [2]: increases phospho PKC and the release of the nonamyloidogenic amyloid protein | apoptotic cell death ([2]; in response to long term culture): reduces apoptotic cell death

CN[C@@H](C)C/C=C/c1cncc(OC(C)C)c1 [TC-1734]
release of acetylcholine from the cortex [3]: enhances the release of acetylcholine
